Reference: publication PMC6747087, “Characterization of Tachyplesin Peptides and Their Cyclized Analogues to Improve Antimicrobial and Anticancer Properties” (International Journal of Molecular Sciences, 2019)
Like-named read-outs stand apart in the source and are kept apart here. Residues, ends and D or L forms follow the SMILES beside them.

Experiments:
[1] = Activity against preformed biofilm (resazurin metabolic activity); type: cell-based, Staphylococcus aureus; details: 24 h preformed biofilm, 4 h peptide treatment, read-out: CC50 (reduction of 50% of the metabolically active cell population)
Procedure: (§1) S. aureus ATCC 6538 (1 × 10^6 cfu/mL) was cultured in Tryptic Soy Broth, containing 0.25% (w/v) glucose and incubated in 96-well microtiter flat-bottomed polystyrene plates for 24 h at 37 °C. Preformed biofilms were then washed with Mueller Hinton Broth to remove non-adherent cells. Two-fold serial dilutions of each peptide (highest concentration tested was 32 µM and lowest was 0.25 µM) were added to the biofilms for 4 h. Untreated 24 h preformed biofilms were used as a control. The metabolic activity of biofilm-embedded cells was determined using a resazurin reduction fluorometric assay as previously described.

[2] = test system: S. aureus ATCC 6538 biofilm; test: as above; type: cell-based, Staphylococcus aureus; details: cells remaining metabolically active at 32 µM, the highest concentration tested
Procedure: as §1

[3] = test system: human red blood cells (RBCs); test: Hemolytic activity against human red blood cells; type: cell-based; details: human RBCs 0.25% (v/v), 1 h, 37 °C; mean ± SEM
Procedure: (§2) A small amount of blood was collected from three healthy human donors. The blood was immediately diluted in PBS and centrifuged 4–5 times for 1 min at 4000 rpm to wash and separate the human red blood cells (RBCs). RBCs suspension (0.25% (v/v) in PBS) was incubated with peptides with two-fold serial dilutions of the peptide (highest concentration tested was 128 µM, and the lowest was 0.25 µM) in a 96-well plate. Melittin, a membrane disruptive peptide, was used as control. The plates were incubated for 1 h at 37 °C. After incubation, the plates were centrifuged for 5 min at 1000 rpm to pellet any non-lysed RBCs. A total of 100 µL of the supernatant were transferred to a new 96-well plate. The hemoglobin released into the supernatant from lysed cells was measured by absorbance at 415 nm using the Tecan infinite M1000Pro multiplate reader (Männedorf, Switzerland).

[4] = Hemolytic activity against human red blood cells; type: cell-based; details: at 64 µM peptide, human RBCs, read-out: RBCs lysed (hemolysis)
Procedure: as §2

[5] = test system: melanoma cell lines MM96L, HT144 and WM164; test: Cytotoxicity and selectivity (activity-toxicity index) for melanoma cell lines; type: cell-based; details: MHC inducing 10% (lower value) or 50% (higher value) cell death in human RBCs over median CC50 of melanoma lines
Procedure: (§3) Cells were seeded into 96-well flat-bottom plates at 5 × 10^3 cells/well and incubated overnight. The medium was removed and replaced with 90 µL serum-free medium, 10 µL of 10x concentrated peptide solutions in PBS were added. PBS was added as blank and 0.1% (v/v) Triton X-100 was used to establish 100% of cell death. After 2 h incubation at 37 °C, 10 µL of filtered 0.05% (w/v) resazurin solution was added to each well [70]. Resazurin is converted to the pink and fluorescent compound resorufin by viable cells. After incubation overnight, the fluorescence intensity (λex = 565 nm and λem = 584 nm) was measured with the Tecan infinite M1000Pro multiplate reader (Männedorf, Switzerland).
The selectivity was calculated through the activity-toxicity index (ATI). ATI = MHC/MCC50, with MHC being the minimal concentration necessary to induce 10% or 50% cell death in human red blood cells and MCC50 the median of cytotoxic concentrations (CC50) of all tested melanoma cell lines.

[6] = Cytotoxicity assay (resazurin); type: cell-based, Human; details: ± SEM, n ≥ 3; for CC50 at 2 h: human
Procedure: Cells were grown in cell culture flasks and incubated in a humidified atmosphere (5% CO2, 37 °C). The cancer cell lines HeLa and the control cell line HaCaT were grown in a DMEM medium supplemented with 1% (v/v) penicillin/streptomycin and 10% (v/v) fetal bovine serum (FBS). The cancer cell lines MM96L, HT144 and WM164 were grown in a RPMI medium supplemented with 1% (v/v) penicillin/[…], 10% (v/v) FBS, 20 mM L-glutamine, and 10 mM sodium pyruvate. Cell cultures were maintained by dilution upon reaching confluence, each 48–72 h. More information about the cell lines is available in Tables S2 and S3.
as §3

[7] = test system: Pseudomonas aeruginosa biofilm; parameters: method as in PMID 18022289; details: rat model of ureteral stent infection; cited from earlier work
S. aureus ATCC 6538 = test: MIC against planktonic bacteria (resazurin); type: cell-based, Staphylococcus aureus; details: Mueller Hinton Broth
Procedure: (§4) S. aureus ATCC 25923, S. aureus ATCC 6538, E. coli ATCC 25922, and E. coli DC2 CGSC 7139 were grown in Mueller Hinton Broth (Sigma Aldrich, St. Luis, USA). Bacterial cultures in the exponential growth phase were diluted to an OD600nm of 0.001 and seeded into 96-well plates. Peptides at different concentrations, starting at 64 µM and with two-fold serial dilutions (i.e., 64, 32, 16, 8, 4, 2, 1, 0.5, 0.25, 0.125 and 0.0625 µM), were incubated with cells; 0.05% (v/v) resazurin was added to the cultures the next day and the conversion to resorufin was measured after 1 h of incubation at 37 °C using a 565 nm excitation and 584 nm emission wavelength, as above.

S. aureus ATCC 25923 = test: MIC against planktonic bacteria (resazurin); type: cell-based, Staphylococcus aureus; details: Mueller Hinton Broth
Procedure: as §4

E. coli DC2 CGSC 7139 = test: MIC against planktonic bacteria (resazurin); type: cell-based, Escherichia coli; details: Mueller Hinton Broth
Procedure: as §4

E. coli ATCC 25922 = test: MIC against planktonic bacteria (resazurin); type: cell-based, Escherichia coli; details: Mueller Hinton Broth
Procedure: as §4

[8] = mouse serum, 2 h; cited from earlier work
in vitro = details: human, 25% (v/v) human serum
Procedure: The serum stability assay was carried out as previously described with some modifications. Briefly, tachyplesin variants were incubated in 25% (v/v) human serum diluted in phosphate-buffered saline (PBS) at a final concentration of 50 µM at 37 °C. Triplicates were collected at time 0 h and 24 h and the serum proteins were precipitated with acetonitrile (1:3 ratio) supplemented with 3% TFA. Samples were kept on ice for 10 min before centrifugation at 17,000× g for 10 min at 4 °C. The peptide containing supernatant of each sample was harvested and quantified using RP-HPLC (10 to 45% solvent B, 1%/min gradient). The percentage of peptide stability in human serum was calculated by comparing the area of the peptide peak obtained at 24 h to that at time 0 h. A linear peptide containing 18 amino acid residues ([…]) was included as a control susceptible to proteolytic degradation.

[9] = human serum, 2 h; cited from earlier work
[10] = HT144, 2 h peptide in serum-free medium
[11] = WM164, 2 h peptide in serum-free medium

For `CC[C@H](C)[C@@H]1NC(=O)CNC(=O)[C@H](CCCNC(=N)N)NC(=O)[C@H](Cc2ccc(O)cc2)NC(=O)[C@@H]2CSSC[C@H](NC1=O)C(=O)N[C@@H](Cc1ccc(O)cc1)C(=O)N[C@@H](CCCNC(=N)N)C(=O)N[C@@H](CCCCN)C(=O)N[C@H](C(=O)N[C@@H](CCCNC(=N)N)C(N)=O)CSSC[C@H](NC(=O)[C@H](Cc1c[nH]c3ccccc13)NC(=O)[C@@H](N)CCCCN)C(=O)N[C@@H](Cc1ccccc1)C(=O)N[C@@H](CCCNC(=N)N)C(=O)N[C@@H](C(C)C)C(=O)N2` [TIII, Tachyplesin III] (HELM PEPTIDE1{K.W.C.F.R.V.C.Y.R.G.I.C.Y.R.K.C.R.[am]}$PEPTIDE1,PEPTIDE1,3:R3-16:R3|PEPTIDE1,PEPTIDE1,7:R3-12:R3$$$V2.0; N-terminus assumed), the Concentration reducing biofilm metabolic activity by 50% at 4 h ([1]; Staphylococcus aureus, preformed S. aureus biofilm) was 24.2 ± 4.1 µM, the “Metabolically Active Cells” value [2] was 43.3 ± 4.1% and the “HC50 (concentration required to induce 50% lysis in RBCs)” value [3] was 86.4 ± 12.2 µM. For the same molecule, the hemolysis at 1 h ([4]; red blood cells in PBS) was 41%, the “Melanoma Selectivity (activity-toxicity index, ATI = MHC/MCC50)” value [5] was 5–48 and the CC50 at 2 h ([6]; HaCaT keratinocyte cells, HaCaT non-cancerous control, 2 h peptide in serum-free medium) was 7300 ± 500 nM. It also gave a CC50 at 2 h ([6]; HeLa cervical cancer cells, 2 h peptide in serum-free medium) of 21700 ± 1100 nM, a CC50 at 2 h ([6]; MM96L melanoma cells, 2 h peptide in serum-free medium) of 1800 ± 100 nM and a CC50 at 2 h [6, 10] of 2000 ± 100 nM. For the same molecule, the CC50 at 2 h [6, 11] was 1700 ± 100 nM, the “prevention of biofilm formation” value [7] was “prevent the formation of a Pseudomonas aeruginosa biofilm” and the MIC (S. aureus ATCC 6538) was 4 to 8 µM. The MIC (S. aureus ATCC 25923) was 1 to 4 µM, the MIC (E. coli DC2 CGSC 7139) was 0.25 to 0.5 µM and the MIC (E. coli ATCC 25922) was 0.0625 to 0.5 µM.
For `[H][C@]12CSSC[C@]([H])(NC(=O)[C@]([H])([C@@H](C)CC)NC(=O)CNC(=O)[C@H](CCCNC(=N)N)NC(=O)[C@H](Cc3ccc(O)cc3)NC1=O)C(=O)N[C@@H](Cc1ccc(O)cc1)C(=O)N[C@@H](CCCNC(=N)N)C(=O)N[C@@H](CCCNC(=N)N)C(=O)N[C@H](C(=O)N[C@@H](CCCNC(=N)N)C(N)=O)CSSC[C@H](NC(=O)[C@H](Cc1c[nH]c3ccccc13)NC(=O)[C@@H](N)CCCCN)C(=O)N[C@@H](Cc1ccccc1)C(=O)N[C@@H](CCCNC(=N)N)C(=O)N[C@@H](C(C)C)C(=O)N2` [TI, Tachyplesin I] (HELM PEPTIDE1{K.W.C.F.R.V.C.Y.R.G.I.C.Y.R.R.C.R.[am]}$PEPTIDE1,PEPTIDE1,3:R3-16:R3|PEPTIDE1,PEPTIDE1,7:R3-12:R3$$$V2.0), the stability in serum [8] is given as “completely stable”, the Concentration reducing biofilm metabolic activity by 50% [1] is given as 21.5 ± 2.2 µM and the “HC50 (concentration required to induce 50% lysis in RBCs)” value [3] is given as 34.9 ± 2.8 µM. For the same molecule, the hemolysis [4] was 66%, the remaining at 24 h, 50 µM (in vitro) was 25% and the stability in serum [9] was “completely stable”. For the same molecule, the CC50 [6, 10] was 1700 ± 200 nM, the CC50 ([6]; HaCaT non-cancerous control, 2 h peptide in serum-free medium) was 11600 ± 1600 nM and the CC50 ([6]; HeLa, 2 h peptide in serum-free medium) was 13100 ± 1200 nM. The CC50 ([6]; MM96L, 2 h peptide in serum-free medium) was 1500 ± 100 nM, the CC50 [6, 11] was 2500 ± 100 nM and the MIC (S. aureus ATCC 6538) was 4 to 8 µM. It also gave an MIC (S. aureus ATCC 25923) of 1 to 4 µM, an MIC (E. coli DC2 CGSC 7139) of 0.5 to 1 µM and an MIC (E. coli ATCC 25922) of 0.0625 to 0.5 µM.
